# In US20220088195A1, “Prevention or mitigation of T-cell bispecific antibody-related adverse effects” (Hoffmann-La Roche Inc., priority 2020, published 2022):
# Key:
# Assay type in all cases: cell-based, human
# SKM-1 tumor cells = assay: Two-stimulation (ON/OFF) killing assay, PBMCs + CFSE/CTV labelled SKM-1 cells + HLA-A2 WT-1-TCB, FACS
# Procedure: FIG. 8. In vitro killing assay set-up and timelines. PBMCs were co-cultured with carboxyfluorescein succinimidyl ester (CFSE) labelled SKM-1 target cells (E:T=5:1) and 10 nM HLA-A2 WT-1-TCB for 20h. Activated PBMCs were washed and restimulated on fresh, CTV labelled SKM-1 target cells (E:T=5:1) and 10 nM HLA-A2 WT-1-TCB in the presence or absence of 100 nM dasatinib.
# FIG. 10. SKM-1 target cell viability upon first stimulation with 10 nM HLA-A2 WT-1-TCB in the absence of dasatinib (left) and upon second stimulation with 10 nM HLA-A2 WT-1-TCB in the presence of 100 nM dasatinib (right). Target cell viability was measured by FACS after 44h in the assay of FIG. 8. Dead CFSE labelled SKM-1 cells were gated on positive near infrared (NIR) cells (left side). Dead CTV labelled SKM-1 cells were gated on positive NIR cells (right side).
# FIG. 11. HLA-A2 WT-1-TCB dose response for dead CFSE and CTV SKM-1 cells used for first and second stimulation in the presence and absence of dasatinib in the assay of FIG. 8. Mean+/−SEM of 3 donors, two-tailed paired t test (for each concentration), 2 tailed p values: 0.1234 (ns), 0.0332 (*), 0.0021 (**), 0.0002 (***), <0.0001 (****).
# To assess whether dasatinib can efficiently prevent TCB-mediated target cell killing by activated T cells, we set up an in vitro killing assay with two stimulation steps, mimicking an ON/OFF switch. […]
# [1] = test system: IFN-γ, IL-2 and TNF-α release; assay: Cytokine levels in supernatants of the reversibility assay (Luminex)
# Procedure: FIG. 18. […] Cytokines ((A) IFN-γ, (B) IL-2, (C) TNF-α) were measured with a multiplex cytokine kit (Luminex technology). 1 donor.
# FIG. 20. Cytokine levels in the supernatants of the assay after first stimulation in the absence of 25 nM dasatinib and after second stimulation in the presence of 25 nM dasatinib, in the assay of FIG. 16 (“ON/OFF”). Cytokines ((A) IFN-γ, (B) IL-2, (C) TNF-α) were measured with a multiplex cytokine kit (Luminex technology). 1 donor.
# FIG. 22. Cytokine release. Supernatants were collected after first and second stimulation in the assay of FIG. 16 and cytokines ((A) TNF-α, (B) IFN-γ, (C) IL-2) measured using a multiplex cytokine kit (Luminex).
# We then verified if dasatinib's effect is reversible upon its removal. Therefore we set-up a killing assay with two and three stimulations in the presence and absence of dasatinib and followed the killing kinetics using an Incucyte® system (FIG. 16). After each stimulation, effector cells were washed and re-stimulated on fresh MKN45 NLR target cells with 1 nM CEA TCB in the presence and absence of dasatinib allowing to mimic OFF/ON switch and ON/OFF/ON switch.
# Lastly, we evaluated if the effect of dasatinib was reversible on activated T cells. Consequently, we supplemented the media with 25 nM dasatinib upon the second stimulation with 1 nM CEA-TCB to prevent killing from activated T cells and then removed the dasatinib upon third stimulation with 1 nM CEA-TCB to verify if killing would be restored.
# We were curious to see if low doses of dasatinib could prevent cytokine release while minimally affecting TCB-efficacy upon first stimulation. In killing assays as described in FIG. 16, the cytokine levels upon first treatment with 1 nM CEA-TCB in the presence of 6.25 nM and 12.5 nM dasatinib and upon second treatment with 1 nM CEA-TCB in the absence of dasatinib were measured in the supernatants.
# SUDLH-8 tumor cells = assay: Killing assay, PBMCs + CTV labelled SUDLH-8 cells + CD19-TCB, flow cytometry 24 hrs; details: 100 nM dasatinib, monohydrate
# Procedure: FIG. 26. In vitro killing assay set-up. PBMCs were co-cultured with CellTrace™ Violet (CTV)-labelled SUDLH-8 tumor cells (E:T=10:1) and escalating concentrations of CD19-TCB in the presence and absence of 100 nM dasatinib.
# FIG. 27. […] The killing of SUDLH-8 tumor cells was measured by flow cytometry using a Live Dead Near InfraRed (NIR) dye allowing for exclusion of dead cells (24 hrs) in the assay described in FIG. 26. Mean of n=3 donors+SD. One way ANOVA, Friedman test, p-value: 0.1234 (ns), 0.0332 (*), 0.0021 (**), 0.0001 (***), <0.0001 (****).
# The killing of CTV labelled SUDLH-8 cells was measured by flow cytometry using a Live/Dead Near Infra Red (NIR) dye. […] The expression of CD69 and CD25 were measured on CD4+ (FIG. 28) and CD8+(FIG. 29) T cells by flow cytometry as a readout for T cell activation. […] Lastly, the cytokine levels were analyzed in the supernatants of the assay by Luminex to evaluate the effect of dasatinib on CD19-TCB-induced cytokine release (FIGS. 30 and 31).
smiles,measurement,setting,value
"Cc1nc(Nc2ncc(C(=O)Nc3c(C)cccc3Cl)s2)cc(N2CCN(CCO)CC2)n1 [dasatinib, N-(2-chloro-6-methylphenyl)-2-[[6-[4-(2-hydroxyethyl)-1-piperazinyl]-2-methyl-4-pyrimidinyl]amino]-5-thiazole carboxamide monohydrate]",CTV labelled SKM-1 cells alive upon second stimulation,SKM-1 tumor cells; 10 nM HLA-A2 WT-1 TCB in the presence of 100 nM dasatinib,87.6%
same,killing of CTV labelled SKM-1 cells (ON/OFF versus ON/ON),SKM-1 tumor cells; 100 nM dasatinib upon re-stimulation,effectively prevented the killing
same,"release of IFN-γ, IL-2 and TNF-α during first stimulation","[1]; 6.25 nM and 12.5 nM dasatinib, 1 nM CEA-TCB",lowered the release
same,"release of IFN-γ, IL-2 and TNF-α (ON/OFF)","[1]; 25 nM dasatinib upon second stimulation, 1 nM CEA-TCB",prevented the release
same,"T-cell derived cytokine release (IFN-γ, IL-2, TNF-α) after first stimulation","[1]; 25 nM dasatinib, 1 nM CEA-TCB",full inhibition
same,"levels of TNF-α, IL-2 and IFN-γ during second stimulation","[1]; dasatinib (6.25 nM, 12.5 nM) removed",remained low
same,"release of IFN-γ, IL-2 and TNF-α after removal of dasatinib and restimulation","[1]; removal of 25 nM dasatinib, restimulation with 1 nM CEA-TCB",T cell functionality was restored upon dasatinib removal
same,killing of SUDLH-8 tumor cells by CD19-TCB,SUDLH-8 tumor cells,prevented killing
